Drawing on patent US6410792B1, “Amide derivatives and methods for using the same as selective neuropeptide Y receptor antagonists” (Bayer Corporation, priority 1997, dated 2002), this text covers IC50 for eleven molecules.

In one test the target is human Y4/PP1 receptor (Homo sapiens, UniProt P50391). Briefly: Human Y4/PP1 receptor binding assay ([125I]human PP, membrane protein). To be noted: [125I]human PP, membrane protein; read-out: hNPY4 IC50. Here is the method: B. Human Y2 and Y4/PP1 Receptor Binding Assays
Binding assays were performed on GF/C Millipore 96-well plates pretreated with 0.02% polyethylenimine. The binding buffer for rat Y2 binding is Krebs-Ringer bicarbonate (pH 7.4) containing 0.01% BSA and 0.005% bacitracin. Samples consist of membrane protein, 25 pM [1251]PYY and drug dilution. Nonspecific binding is defined by 1 μM NPY. The binding buffer for human Y4/PP1 binding consists of 137 mM NaCl, 5.4 mM KCl, 0.44 mM KH2PO4, 1.26 mM CaCl2, 0.81 mM MgSO4, 20 mM HEPES, 1 mM dithiothreitol, 0.1% bacitracin, 100 mg/l streptomycin sulfate, 1 mg/l aprotinin, 10 mg/ml soybean trypsin inhibitor and 0.3% BSA, pH 7.4. Samples consist of membrane protein, 50 pM human [1251]human PP (hPP: NEN DuPont, Boston, Mass.) and drug dilution. 1 μM hPP is used to define nonspecific binding.
After a 2 hour incubation at room temperature with constant mixing, the samples are aspirated on a vacuum manifold, and rinsed with ice-cold binding buffer. The amount of radioactivity in each well is quantitated with either gamma counting or liquid scintillation.

In another test the target is T1, Human NPY5 receptor (Homo sapiens, UniProt Q15761).
T1 sequence (Q15761 1-445): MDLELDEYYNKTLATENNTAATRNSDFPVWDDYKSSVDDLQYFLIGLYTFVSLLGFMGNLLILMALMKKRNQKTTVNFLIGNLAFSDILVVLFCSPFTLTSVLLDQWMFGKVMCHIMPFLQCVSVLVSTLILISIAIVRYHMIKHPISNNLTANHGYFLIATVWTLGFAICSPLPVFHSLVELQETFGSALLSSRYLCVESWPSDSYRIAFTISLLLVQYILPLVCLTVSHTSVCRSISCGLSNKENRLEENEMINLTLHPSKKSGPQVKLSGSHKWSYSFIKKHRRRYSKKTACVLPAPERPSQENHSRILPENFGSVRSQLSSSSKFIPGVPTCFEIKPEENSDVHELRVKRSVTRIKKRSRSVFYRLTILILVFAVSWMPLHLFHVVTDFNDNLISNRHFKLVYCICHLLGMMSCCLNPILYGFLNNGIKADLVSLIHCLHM
Put plainly: Human NPY5 receptor binding assay ([125I]PYY, membrane protein). The settings on record: [125I]PYY, read-out: hNPY5 IC50. A digest of the protocol:
(§1)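 Compounds compete with porcine [125I]PYY (75-100 pM) for receptor sites on membrane protein over a 2 hour room-temperature incubation at pH 7.4. Unlabelled PYY at 1 μM defines nonspecific binding, and filter-retained radioactivity gives the read-out.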

A further test has as its target T2, Y2 receptor (Homo sapiens, UniProt P49146).
T2 sequence (P49146 1-381): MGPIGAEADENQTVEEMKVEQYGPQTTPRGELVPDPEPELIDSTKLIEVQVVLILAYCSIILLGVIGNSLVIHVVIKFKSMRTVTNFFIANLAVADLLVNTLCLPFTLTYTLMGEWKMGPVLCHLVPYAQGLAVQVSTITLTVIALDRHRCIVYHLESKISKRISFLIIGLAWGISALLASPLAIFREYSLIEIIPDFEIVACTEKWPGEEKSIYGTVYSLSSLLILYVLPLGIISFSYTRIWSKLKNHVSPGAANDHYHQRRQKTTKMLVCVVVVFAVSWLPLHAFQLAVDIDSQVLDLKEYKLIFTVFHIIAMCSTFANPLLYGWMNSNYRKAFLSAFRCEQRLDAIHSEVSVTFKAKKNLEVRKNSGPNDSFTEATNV
Put plainly: Y2 receptor binding assay ([125I]PYY, membrane protein). The settings on record: [125I]PYY, membrane protein; read-out: hNPY2 IC50. The gist of the method:
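Filtration binding with membrane protein and drug dilution, 2 h at room temperature with mixing, radioactivity counted by gamma or scintillation. Y2: 25 pM [125I]PYY in Krebs-Ringer bicarbonate pH 7.4 with 0.01% BSA, nonspecific by 1 μM NPY. Y4/PP1: 50 pM [125I]hPP in HEPES-buffered saline pH 7.4 with protease inhibitors and 0.3% BSA, nonspecific by 1 μM hPP.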

Another test has as its target T3, Human NPY1 receptor (Homo sapiens, UniProt P25929).
T3 construct: host or cells: SK-N-MC cells
T3 sequence (P25929 1-384): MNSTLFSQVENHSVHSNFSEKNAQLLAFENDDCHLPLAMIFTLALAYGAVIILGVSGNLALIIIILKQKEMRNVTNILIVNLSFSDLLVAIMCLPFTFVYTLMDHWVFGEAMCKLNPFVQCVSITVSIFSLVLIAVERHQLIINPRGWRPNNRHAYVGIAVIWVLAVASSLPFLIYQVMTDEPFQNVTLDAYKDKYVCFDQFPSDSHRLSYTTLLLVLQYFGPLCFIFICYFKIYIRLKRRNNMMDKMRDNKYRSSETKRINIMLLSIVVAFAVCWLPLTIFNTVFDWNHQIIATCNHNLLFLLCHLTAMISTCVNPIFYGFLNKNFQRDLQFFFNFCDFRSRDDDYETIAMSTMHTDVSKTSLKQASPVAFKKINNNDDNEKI
Briefly: Human NPY1 receptor binding assay ([125I]PYY, SK-N-MC cells). The settings on record: [125I]PYY, SK-N-MC cells; read-out: hNPYI IC50. Here is the method: A. Human NPY1 Receptor Binding Assay
This is a modification of Gordon et al., (J. Neurochem. 55:506-513, 1990). SK-N-MC cell (ATCC, Rockville, Md.) were plated in 24-well plates. Once confluent, cells were rinsed with Dulbecco's phosphate buffered saline (DPBS). Cells were then preincubated in binding buffer containing serum-free DMEM, 25 mM HEPES (pH 7.3), 0.5% bovine serum albumin (BSA), 0.1% bacitracin and 0.1 mM phenylmethylsulfonylfluoride for 30 minutes at room temperature. Drug dilution and [125I]PYY (˜50 pM: NEN-DuPont) were added to the wells, and the cells were incubated for an additional 3 hours at room temperature, followed by rinsing with ice-cold DPBS. Nonspecific binding was defined with 1 μM NPY. After lysing the cells with 1% Triton X-100, the amount of radioactivity in the lysates was quantitated with a gamma counter.

The next test addresses T4, Rat NPY5 receptor (Rattus norvegicus, UniProt Q63634).
T4 sequence (Q63634 1-445): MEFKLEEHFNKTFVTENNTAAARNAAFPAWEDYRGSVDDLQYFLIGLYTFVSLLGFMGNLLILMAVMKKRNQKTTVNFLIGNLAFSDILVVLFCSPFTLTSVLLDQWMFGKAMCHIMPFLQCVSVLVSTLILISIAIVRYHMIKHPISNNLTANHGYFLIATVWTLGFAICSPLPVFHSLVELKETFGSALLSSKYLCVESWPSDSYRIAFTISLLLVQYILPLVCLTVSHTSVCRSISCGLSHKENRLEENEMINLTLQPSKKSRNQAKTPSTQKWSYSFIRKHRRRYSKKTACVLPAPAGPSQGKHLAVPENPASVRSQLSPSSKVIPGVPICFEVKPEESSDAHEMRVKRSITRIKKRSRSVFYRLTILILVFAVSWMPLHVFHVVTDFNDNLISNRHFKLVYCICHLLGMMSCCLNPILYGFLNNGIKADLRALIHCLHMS
Briefly: Rat NPY5 receptor binding assay ([125I]PYY, membrane protein). To be noted: [125I]PYY, read-out: rNPY5 IC50. The gist of the method: as §1

Sequence of human Y4/PP1 receptor (P50391 whole entry): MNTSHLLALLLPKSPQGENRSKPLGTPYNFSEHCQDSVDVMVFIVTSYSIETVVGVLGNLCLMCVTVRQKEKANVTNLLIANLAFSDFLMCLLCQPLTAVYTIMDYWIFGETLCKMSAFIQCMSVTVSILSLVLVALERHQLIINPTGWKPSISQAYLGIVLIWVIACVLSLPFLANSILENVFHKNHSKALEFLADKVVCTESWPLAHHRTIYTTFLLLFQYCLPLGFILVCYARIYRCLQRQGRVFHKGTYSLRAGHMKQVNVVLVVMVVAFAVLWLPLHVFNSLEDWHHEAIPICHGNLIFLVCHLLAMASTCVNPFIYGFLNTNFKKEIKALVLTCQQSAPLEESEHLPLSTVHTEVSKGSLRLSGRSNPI

For orientation: IC50 means the concentration needed to halve the response being measured. In the case of `O=C(CN1CCC(n2c(=O)[nH]c3ccccc32)CC1)Nc1ccc2cn[nH]c2c1` [Compound 344, N-(1H-Indazol-6-yl)-2-[4-(2-oxo-2,3-dihydro-benzoimidazol-1-yl)-piperidin-1-yl]-acetamide, reference compound], the IC50 on human Y4/PP1 receptor is over 5 µM; on Human NPY5 receptor, 2700 nM; on Y2 receptor, over 5 µM; at Human NPY1 receptor, over 5 µM; on Rat NPY5 receptor, 1700 nM.
Consider `CCOc1ccc(NC(=O)CN2CCC(n3c(=O)[nH]c4ccccc43)CC2)cc1` [Compound 347, N-(4-Ethoxy-phenyl)-2-[4-(2-oxo-2,3-dihydro-benzoimidazol-1-yl)-piperidin-1-yl]-acetamide, reference compound], for which the IC50 on human Y4/PP1 receptor was over 5 µM; on Human NPY5 receptor, 143 nM; on Y2 receptor, over 5 µM; at Human NPY1 receptor it was over 5 µM; at Rat NPY5 receptor it was 130 nM.
As to `O=C(CN1CCC(n2c(=O)[nH]c3ccccc32)CC1)Nc1ccccc1Cl` [Compound 348, N-(2-Chloro-phenyl)-2-[4-(2-oxo-2,3-dihydro-benzoimidazol-1-yl)-piperidin-1-yl]-acetamide, reference compound], the IC50 at human Y4/PP1 receptor was over 5 µM; at Human NPY5 receptor, 1200 nM; on Y2 receptor it was over 5 µM; on Human NPY1 receptor it was over 5 µM; on Rat NPY5 receptor, over 10000 nM.
Take `NC(=O)c1ccc(NC(=O)CN2CCC(n3c(=O)[nH]c4ccccc43)CC2)cc1` [Compound 350, 4-(2-[4-(2-Oxo-2,3-dihydro-benzoimidazol-1-yl)-piperidin-1-yl]-acetylamino)-benzamide, reference compound]: the IC50 at human Y4/PP1 receptor was over 5 µM; at Human NPY5 receptor, 2300 nM; at Y2 receptor it was over 5 µM; at Human NPY1 receptor it was over 5 µM; at Rat NPY5 receptor, 1400 nM.
With `CC(=O)Nc1ccc(NC(=O)CN2CCC(n3c(=O)[nH]c4ccccc43)CC2)cc1` [Compound 351, N-(4-Acetylamino-phenyl)-2-[4-(2-oxo-2,3-dihydro-benzoimidazol 1-yl)-piperidin-1-yl]-acetamide, reference compound], the IC50 at human Y4/PP1 receptor was over 5 µM; on Human NPY5 receptor, 580 nM; at Y2 receptor it was over 5 µM; on Human NPY1 receptor, over 5 µM; on Rat NPY5 receptor, 979 nM.
Turning to `CN(C)c1ccc(NC(=O)CN2CCC(n3c(=O)[nH]c4ccccc43)CC2)cc1` [Compound 353, N-(4-Dimethylamino-phenyl)-2-[4-(2-oxo-2,3-dihydro-benzoimidazol-1-yl)-piperidin-1-yl]acetamide, reference compound], the IC50 is over 5 µM on human Y4/PP1 receptor; 135 nM on Human NPY5 receptor; over 5 µM on Y2 receptor; over 5 µM at Human NPY1 receptor; 187 nM on Rat NPY5 receptor.
Consider `O=C(CN1CCC(n2c(=O)[nH]c3ccccc32)CC1)Nc1ccc([N+](=O)[O-])cc1` [Compound 355, N-(4-Nitro-phenyl)-2-[4-(2-oxo-2,3-dihyro-benzoimidazol-1-yl)-piperidin-1-yl]-acetamide, reference compound], for which the IC50 is over 5 µM on human Y4/PP1 receptor; 200 nM on Human NPY5 receptor; over 5 µM on Y2 receptor; over 5 µM on Human NPY1 receptor; 190 nM at Rat NPY5 receptor.
Consider `O=C(CN1CCC(n2c(=O)[nH]c3ccccc32)CC1)Nc1ccc(Cl)cc1` [Compound 358, N-(4-Chloro-phenyl)-2-[4-(2-oxo-2,3-dihydro-benzoimidazol-1-yl)-piperidin-1-yl]-acetamide, reference compound], for which the IC50 on human Y4/PP1 receptor is over 5 µM; on Human NPY5 receptor, 730 nM; on Y2 receptor, over 5 µM; on Human NPY1 receptor, over 5 µM; at Rat NPY5 receptor, 443 nM.
Regarding `COC(=O)c1ccc(NC(=O)CN2CCC(n3c(=O)[nH]c4ccccc43)CC2)cc1` [Compound 360, 4-(2-[4-(2-Oxo-2,3-dihydro-benzoimidazol-1-yl)-piperidin-1-yl]-acetylamino)-benzoic acid methyl ester, reference compound], the IC50 at human Y4/PP1 receptor is over 5 µM; at Human NPY5 receptor, 55 nM; on Y2 receptor, over 5 µM; on Human NPY1 receptor, over 5 µM; at Rat NPY5 receptor, 56.2 nM.
As for `COc1ccc(NC(=O)CN2CCC(n3c(=O)[nH]c4ccccc43)CC2)cc1` [Compound 361, N-(4-Methoxy-phenyl)-2-[4-(2-oxo-2,3-dihydro-benzoimidazol-1-yl)-piperidin-1-yl]-acetamide, reference compound], the IC50 is over 5 µM at human Y4/PP1 receptor; 410 nM on Human NPY5 receptor; over 5 µM at Y2 receptor; over 5 µM at Human NPY1 receptor; 539 nM on Rat NPY5 receptor.
As to “N-(2-Amino-4-propylsulfnyl-phenyl)-2-[4-(2-oxo-2,3-dihydro-benzoimidazol-1-yl)-pipendin-1-yl]-acetamide; compound with GENERIC INORGANIC NEUTRAL COMPONENT [Compound 339, reference compound]”, the IC50 is over 5 µM on human Y4/PP1 receptor; 34 nM at Human NPY5 receptor; over 5 µM on Y2 receptor; over 5 µM at Human NPY1 receptor; 31 nM at Rat NPY5 receptor.
